The numbers were not newly measured in patent US6479045B2, “Vaginal pH buffering for preventing miscarriage and premature labor, by treating or preventing bacterial vaginosis” (Columbia Laboratories, Inc., priority 1999, dated 2002), which cites them from elsewhere.

This data set relates to Bacterial Vaginosis. As to conditions: within one month.

Consider `Cc1ncc([N+](=O)[O-])n1CCO` [metronidazole], for which the cure rate result was “approximately 70%”.
